Patent US12226395B2, “Composition for preventing or treating neurodegenerative diseases, containing diterpene-based compound” (KOREA RESEARCH INSTITUTE OF BIOSCIENCE AND BIOTECHNOLOGY, priority 2017, dated 2025)
Where two headings read alike, the source gives them in different places.

Assays:
Format in all cases: cell-based
Nurr1 [1] = biological target: T1, Nurr1 (Homo sapiens, UniProt P43354); experiment: Nurr1 activity, luciferase reporter analysis in transfected BE(2)C cells; conditions: for Nurr1 activity (luciferase), multiple of 0.1% DMSO control: BE(2)C cells, 20 hours; for Nurr1 activation (in words): no concentration stated
T1 construct: 3 types of plasmid DNA, including DNA containing Nurr1-LBD and DNA with β-galactosidase, were transfected into BE(2)C cells; expressed in transfected cells; host or cells: BE(2)C cells
T1 sequence (P43354 360-595 limits assumed): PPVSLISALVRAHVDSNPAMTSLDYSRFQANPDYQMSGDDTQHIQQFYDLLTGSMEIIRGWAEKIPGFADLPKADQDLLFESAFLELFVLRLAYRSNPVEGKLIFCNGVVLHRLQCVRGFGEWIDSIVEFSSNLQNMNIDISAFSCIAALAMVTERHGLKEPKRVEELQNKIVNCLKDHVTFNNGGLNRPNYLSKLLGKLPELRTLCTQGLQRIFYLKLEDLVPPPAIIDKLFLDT
Source text: As in Example 2, Nurr1 activity according to the concentration of the diterpene isolated from the extract of Daphne genkwa was confirmed through luciferase analysis.
Specifically, after synthesizing a vector in which the gene having the nucleotide sequence (5′-CTCGGAGGACAGTACTCCG-3 SEQ ID NO:1) to which the GLA4 gene can bind is repeated 8 times to the reporter gene, luciferase, is synthesized, 3 types of plasmid DNA, including DNA containing Nurr1-LBD and DNA with β-galactosidase, were transfected into BE(2)C cells. After 6 hours, the compounds 1 to 10 separated in Example 2 were treated according to the concentrations in Table 1 below. The cells thus treated were cultured in a 5% carbon dioxide incubator at 37° C. for 20 hours, and then luciferase analysis was performed. As a control, 0.1% DMSO was used, and at this time, the activity was increased by multiple, and Amodiaquine was used as a positive control.

[2] = test system: nitric oxide production in microglia BV-2 cells; experiment: Inhibition of nitric oxide production in LPS-treated microglia BV-2 cells (Griess reagent); conditions: for Inhibition of nitric oxide production (in words): microglia BV-2 cells
Source text: The death of cranial nerve cells due to an inflammatory reaction in a microglia cell has been reported as one of the main causes of degenerative brain diseases such as dementia and Parkinson's disease. (Sarkar S et al., Neurotoxicology, 44, 250-262 (2014); Bower J H et al., Neurology, 67, 494-496 (2006)). Accordingly, the inhibition activity on nitric oxide production, a representative inflammatory factor, was investigated for the compounds isolated from Example 2 in a microglia. Specifically, microglia BV-2 cells were put into a 96-well plate at 5×10^4 cells/well, and cultured for 2 days, followed by incubation with LPS ([…]) for 24 hours with the compound isolated in Example 2 above. The culture supernatant was measured for absorbance at 540 nm using the Griess reagent to quantify nitrite to investigate the amount of nitric oxide production. Minocyline was used as a positive control.

Nurr1 [3] = biological target: T1, Nurr1; experiment: Nurr1 activity, luciferase reporter analysis in transfected BE(2)C cells
[4] = High concentration = 1 μM (Table 1)
[5] = Low concentration = 0.01 μM (Table 1)
[6] = Mid concentration = 0.1 μM (Table 1)
[7] = Mus musculus, BV-2 cells, LPS 24 hours, nitrite by Griess reagent, read-out: IC50, inhibition of nitric oxide production (Table 4)
[8] = High concentration = 10 μM (Table 1)
[9] = Low concentration = 0.1 μM (Table 1)
[10] = Mid concentration = 1 μM (Table 1)
[11] = BV-2 cells, LPS 24 hours, nitrite by Griess reagent, read-out: IC50, inhibition of nitric oxide production (Table 5)

For `C=C(C)[C@@]12O[C@@]3(c4ccccc4)O[C@@H]1C1[C@@H]4O[C@]4(CO)[C@@H](O)[C@]4(O)C(=O)C(C)=CC4[C@@]1(O3)[C@H](C)[C@H]2OC(=O)c1ccccc1` (stereo partly drawn) [Formula 2, (2S,3aR,3cS,4aR,5S,5aS,8bR,9R,10R,10aS)-5,5a-dihydroxy-4a-(hydroxymethyl)-7,9-dimethyl-6-oxo-2-phenyl-10a-(prop-1-en-2-yl)-3a,3b,3c,4a,5,5a,8a,9,10,10a-decahydro-6H-2,8b-epoxyoxireno[2″,3″:6′,7′]azuleno[5′,4′:3,4]benzo[1,2-d][1,3]dioxol-10-yl benzoate], the “Nurr1 activity (luciferase), multiple of 0.1% DMSO control” value (from here on “Nurr1 activity … of 0.1% DMSO control”) (Nurr1 [1]; [4]) was 1.9, the “Nurr1 activity … of 0.1% DMSO control” value (Nurr1 [1]; [5]) was 2.1 and the “Nurr1 activity … of 0.1% DMSO control” value (Nurr1 [1]; [6]) was 2.2. For the same compound, the “Nurr1 activation (in words)” value (Nurr1 [1]) was “better effect of increasing Nurr1 activity”, the IC50 [2, 7] was 0.06 ± 0.02 µM and the “Inhibition of nitric oxide production (in words)” value [2] was “superior inhibition activity on nitric oxide production”. The “Nurr1 activation (in words)” value (Nurr1 [3]; 0.01 μM) was “excellent effect of Nurr1 activity”.

With `C=C(C)[C@]12C[C@@H](C)[C@@]34O[C@](c5ccccc5)(O[C@@H]1C3[C@@H]1O[C@]1(COC(=O)c1ccccc1)[C@@H](O)[C@@]1(O)C4C[C@H](C)[C@@H]1O)O2` (stereo partly drawn) [Formula 4, ((2S,3aR,3cS,4aR,5S,5aR,6S,7S,8bR,9R,10aR)-5,5a,6-trihydroxy-7,9-dimethyl-2-phenyl-10a-(prop-1-en-2-yl)dodecahydro-4aH-2,8b-epoxyoxireno[2″,3″:6′,7′]azuleno[5′,4′:3,4]benzo[1,2-d][1,3]dioxol-4a-yl)methyl benzoate] the “Nurr1 activity … of 0.1% DMSO control” value (Nurr1 [1]; [8]) was 1.7, the “Nurr1 activity … of 0.1% DMSO control” value (Nurr1 [1]; [9]) was 1.0 and the “Nurr1 activity … of 0.1% DMSO control” value (Nurr1 [1]; [10]) was 1.4. For the same compound, the IC50 ([2]; Mus musculus, BV-2, 24 h, read-out: IC50, inhibition of nitric oxide production (Table 4)) was 0.18 ± 0.04 µM.

For `C=C(C)[C@]1(O)C[C@@H](C)[C@@]2(O)C([C@H]1OC(=O)c1ccccc1)[C@H](O)[C@@](O)(COC(=O)c1ccccc1)[C@@H](O)[C@@]1(O)C2C[C@H](C)[C@@H]1O` (stereo partly drawn) [Formula 5, ((2S,3S,3aR,4S,5S,6S,7R,8R,10R,10aR)-7-(benzoyloxy)-3,3a,4,5,6,8,10a-heptahydroxy-2,10-dimethyl-8-(prop-1-en-2-yl)tetradecahydrobenzo[e]azulen-5-yl)methyl benzoate], the “Nurr1 activity … of 0.1% DMSO control” value (Nurr1 [1]; [8]) was 1.9, the “Nurr1 activity … of 0.1% DMSO control” value (Nurr1 [1]; [9]) was 0.9 and the “Nurr1 activity … of 0.1% DMSO control” value (Nurr1 [1]; [10]) was 1.2. The IC50 [2, 7] was 4.67 ± 3.1 µM.

`C=C(C)[C@@]12O[C@@]3(c4ccccc4)O[C@@H]1C1[C@@H]4O[C@]4(CO)[C@@H](O)[C@]4(O)C(=O)[C@@H](C)CC4[C@@]1(O3)[C@H](C)[C@H]2OC(C)=O` (stereo partly drawn) [Formula 6, (2S,3aR,3cS,4aR,5S,5aS,7S,8bR,9R,10R,10aS)-5,5a-dihydroxy-4a-(hydroxymethyl)-7,9-dimethyl-6-oxo-2-phenyl-10a-(prop-1-en-2-yl)dodecahydro-6H-2,8b-epoxyoxireno[2″,3″:6′,7′]azuleno[5′,4′:3,4]benzo[1,2-d][1,3]dioxol-10-yl acetate] was tested, and the “Nurr1 activity … of 0.1% DMSO control” value (Nurr1 [1]; [4]) was 2.4, the “Nurr1 activity … of 0.1% DMSO control” value (Nurr1 [1]; [5]) was 1.0 and the “Nurr1 activity … of 0.1% DMSO control” value (Nurr1 [1]; [6]) was 1.8. The IC50 [2, 7] was 0.25 ± 0.06 µM.

With `C=C(C)[C@]12C[C@@H](C)[C@@]34O[C@](c5ccccc5)(O[C@@H]1C3[C@H](O)[C@@](O)(CO)[C@@H](O)[C@@]1(O)C4C=C(C)[C@@H]1O)O2` (stereo partly drawn) [Formula 7, (2S,3aR,4S,5S,6S,6aR,7S,9bR,10R,11aR)-5-(hydroxymethyl)-8,10-dimethyl-2-phenyl-11a-(prop-1-en-2-yl)-3a,3b,4,5,6,7,9a,10,11,11a-decahydro-6aH-2,9b-epoxyazuleno[5′,4′:3,4]benzo[1,2-d][1,3]dioxole-4,5,6,6a,7-pentaol] the “Nurr1 activity … of 0.1% DMSO control” value (Nurr1 [1]; [8]) was 2.0, the “Nurr1 activity … of 0.1% DMSO control” value (Nurr1 [1]; [9]) was 1.2 and the “Nurr1 activity … of 0.1% DMSO control” value (Nurr1 [1]; [10]) was 2.6. The IC50 [2, 7] was 3.41 ± 0.99 µM.

`C=C(C)[C@]12C[C@@H](C)[C@@]34O[C@](c5ccccc5)(O[C@@H]1C3[C@@H]1O[C@]1(CO)[C@@H](O)[C@@]1(O)C4C[C@H](C)[C@@H]1O)O2` (stereo partly drawn) [Formula 8, (2S,3aR,3cS,4aR,5S,5aR,6S,7S,8bR,9R,10aR)-4a-(hydroxymethyl)-7,9-dimethyl-2-phenyl-10a-(prop-1-en-2-yl)dodecahydro-5aH-2,8b-epoxyoxireno[2″,3″:6′,7′]azuleno[5′,4′:3,4]benzo[1,2-d][1,3]dioxole-5,5a,6-triol] was tested, and the “Nurr1 activity … of 0.1% DMSO control” value (Nurr1 [1]; [8]) was 1.6, the “Nurr1 activity … of 0.1% DMSO control” value (Nurr1 [1]; [9]) was 1.7 and the “Nurr1 activity … of 0.1% DMSO control” value (Nurr1 [1]; [10]) was 2.0. The “Nurr1 activation (in words)” value (Nurr1 [1]) was “better effect of increasing Nurr1 activity” and the IC50 [2, 7] was 1.22 ± 0.13 µM.

For `C=C(C)[C@]12C[C@@H](C)[C@@]34O[C@](c5ccccc5)(O[C@@H]1C3[C@@H]1O[C@]1(CO)[C@@H](O)[C@]1(O)C(=O)[C@@H](C)CC41)O2` (stereo partly drawn) [Formula 9, (2S,3aR,3cS,4aR,5S,5aS,7S,8bR,9R,10aR)-5,5a-dihydroxy-4a-(hydroxymethyl)-7,9-dimethyl-2-phenyl-10a-(prop-1-en-2-yl)dodecahydro-6H-2,8b-epoxyoxireno[2″,3″:6′,7′]azuleno[5′,4′:3,4]benzo[1,2-d][1,3]dioxol-6-one], the “Nurr1 activity … of 0.1% DMSO control” value (Nurr1 [1]; [8]) was 1.5, the “Nurr1 activity … of 0.1% DMSO control” value (Nurr1 [1]; [9]) was 1.7 and the “Nurr1 activity … of 0.1% DMSO control” value (Nurr1 [1]; [10]) was 2.4. The IC50 [2, 7] was 1.6 ± 0.37 µM.

`C=C(C)[C@@]12O[C@@]3(/C=C/C=C/CCCCC)O[C@@H]1[C@@H]1[C@@H]4O[C@]4(CO)[C@@H](O)[C@]4(O)C(=O)C(C)=C[C@H]4[C@@]1(O3)[C@H](C)[C@H]2OC(C)=O` [compound 13, yuanhuadine] was tested, and the “Nurr1 activation (in words)” value (Nurr1 [1]) was “better effect of increasing Nurr1 activity”, the IC50 [2, 11] was 1.8 µM and the “Nurr1 activation (in words)” value (Nurr1 [3]; 0.003 μM) was “activated Nurr1”. The “Nurr1 activity (Table 3), relative to control treatment” value (Nurr1 [3]; 0.003 μM) was 1.23 ± 0.09, the “Nurr1 activity (Table 3), relative to control treatment” value (Nurr1 [3]; 0.01 μM) was 1.35 ± 0.28 and the “Nurr1 activation (in words)” value (Nurr1 [3]; 0.03 μM) was “significantly activates Nurr1”. For the same compound, the “Nurr1 activity (Table 3), relative to control treatment” value (Nurr1 [3]; 0.03 μM) was “*1.47 ± 0.17”, the “Nurr1 activity (Table 3), relative to control treatment” value (Nurr1 [3]; 0.1 μM) was “*1.42 ± 0.14” and the “Nurr1 activity (Table 3), relative to control treatment” value (Nurr1 [3]; 0.3 μM) was “*1.65 ± 0.2”. The “Nurr1 activity (Table 3), relative to control treatment” value (Nurr1 [3]; 1 μM) was “**1.47 ± 0.02”.

With `CCC/C=C/C=C/C=C/C(=O)O[C@@H]1[C@@H](C)[C@@]2(O)C(C=C(CO)C[C@]3(O)C(=O)C(C)=CC23)C2C(C)(C)[C@@]21OC(C)=O` (stereo partly drawn) [compound 16, (4aR,7bS,8R,9R,9aS)-9a-acetoxy-4a,7b-dihydroxy-3-(hydroxymethyl)-1,1,6,8-tetramethyl-5-oxo-1a,1b,4,4a,5,7a,7b,8,9,9a-decahydro-1H-cyclopropa[3,4]benzo[1,2-e]azulen-9-yl (2E,4E,6E)-deca-2,4,6-trienoate] the “Nurr1 activation (in words)” value (Nurr1 [1]) was “better effect of increasing Nurr1 activity”, the IC50 ([2]; Mus musculus, BV-2, 24 h, read-out: IC50, inhibition of nitric oxide production (Table 5)) was 1.78 µM and the “Nurr1 activation (in words)” value (Nurr1 [3]; 0.03 μM) was “significantly activates Nurr1”. The “Nurr1 activity (Table 3), relative to control treatment” value (Nurr1 [3]; 0.03 μM) was “*1.42 ± 0.15”, the “Nurr1 activity (Table 3), relative to control treatment” value (Nurr1 [3]; 0.1 μM) was “*1.68 ± 0.43” and the “Nurr1 activity (Table 3), relative to control treatment” value (Nurr1 [3]; 0.3 μM) was “*1.82 ± 0.51”. For the same compound, the “Nurr1 activity (Table 3), relative to control treatment” value (Nurr1 [3]; 1 μM) was “**1.53 ± 0.07”.

In the case of yuanhuatine [compound 14], the “Nurr1 activation (in words)” value (Nurr1 [1]) is reported as “better effect of increasing Nurr1 activity”, the IC50 [2, 11] is reported as 1.03 µM and the “Inhibition of nitric oxide production (in words)” value [2] is reported as “better inhibition activity on nitric oxide production”. The “Nurr1 activation (in words)” value (Nurr1 [3]; 0.003 μM) was “activated Nurr1”, the “Nurr1 activity (Table 3), relative to control treatment” value (Nurr1 [3]; 0.003 μM) was 1.03 ± 0.15 and the “Nurr1 activity (Table 3), relative to control treatment” value (Nurr1 [3]; 0.01 μM) was 0.94 ± 0.04. The “Nurr1 activation (in words)” value (Nurr1 [3]; 0.03 μM) was “significantly activates Nurr1”, the “Nurr1 activity (Table 3), relative to control treatment” value (Nurr1 [3]; 0.03 μM) was “*1.63 ± 0.18” and the “Nurr1 activity (Table 3), relative to control treatment” value (Nurr1 [3]; 0.1 μM) was “**1.68 ± 0.11”. For the same compound, the “Nurr1 activity (Table 3), relative to control treatment” value (Nurr1 [3]; 0.3 μM) was “**1.62 ± 0.11” and the “Nurr1 activity (Table 3), relative to control treatment” value (Nurr1 [3]; 1 μM) was “*1.67 ± 0.32”.
